Reference: patent publication US7749725B2, “Drug screening and diagnosis based on paracrine tubular renin-angiotensin system” (University of Utah Research Foundation, priority 1998, dated 2010)
“Also recorded” adds a separate entry of the source.

Columns and labels:
[1] = test system: renin expression in JGA; assay: JGA renin expression by semiquantitative RT-PCR of total kidney RNA; format: in vivo, C57BL6 mice; conditions: overnight
Experimental: (§1) 3. Animal experiments and measurements. C57BL6 mice were used following IRB approved protocols. Twenty-four hours prior to dietary sodium manipulations, all animals were fasted with free access to water, supplemented with 2% glucose and 0.1% KCl. Either one mg/kg amiloride and 2 mg/kg furosemide (52) or control carrier were applied by subcutaneous injection. Low sodium (0.3% sodium) and high sodium (6%) diets were purchased from Purina Mills (Purina Mills Inc., St. Louis, Mo.). Blood was collected by cardiac puncture. Spot urine was collected by bladder puncture. Hemidissected kidneys were formalin-fixed or snap-frozen in liquid nitrogen. For urine collection, mice were placed in metabolic cages (Nalgene, Nalge Nunc International, Rochester, N.Y.). Urine specimens were collected at 12 h intervals in tubes containing AEBSF and 8-hydroxyquinoline (NEN-DuPont, Boston, Mass.). Weight and urine volumes were recorded daily. Urinary Ang and A-I measurements were corrected for creatinine or expressed as total urinary Ang. […]
On the basis of immunostaining and expression studies, we conclude that, in addition to its major site of expression in JGA, renin is also expressed in connecting tubule. […] Renin expression in CNT cells was assessed by quantitative histology (frequency of CNT cells staining for renin). […] Manipulation of dietary sodium was monitored by measuring total sodium excretion. […]

[2] = test system: renin expression in CNT cells; assay: Renin expression in CNT cells by quantitative histology (renin immunostaining) after sodium diet and diuretics; format: in vivo, C57BL6 mice
Experimental: as §1, with “Ang. RNA isolation and RT-PCR were performed following standard protocols (QIAGEN, Valencia, Calif.).” for “Ang.”
5. […] The biotinylated secondary antibody was detected using streptavidin conjugated with horseradish peroxidase or alkaline phosphatase and visualized with either 3-amino-9-ethyl-carbazole (AEC; Sigma) or NBT/BCIP, respectively. […]
6. Quantitative histology. Renin expression in renal tubular cells as a function of sodium diet, or diuretics, was assayed by quantitating the frequency of renin immunostaining in segments of the distal nephron using the peroxidase reporter enzyme and AEC chromogen. Two independent blinded investigators scored sagittal kidney for renin using a subjective 0-4 scale: 0 equaled no tubular renin staining; 1 equaled at least one positive cell per tubule segment; 2 equaled between 25-50% of cells per of tubule segment; 3 equaled more than 50% of cells per tubule segment stained for renin; 4 equaled >75%. […] Results were analyzed by comparing the mean±S.E.M. between groups using unpaired t-tests. p<0.05 was considered significant. […]

SMILES	JGA renin ([1]; high sodium diet plus amiloride (one mg/kg, subcutaneous), p<0.05)	renin expression in distal nephron ([2]; blocking the sodium channel of principal cells (summary statement))	CNT immunoreactive renin ([2]; high sodium diet plus amiloride (one mg/kg, subcutaneous), overnight, vs high sodium alone)	JGA renin ([1]; sodium restriction plus furosemide (2 mg/kg, subcutaneous), vs sodium restriction alone)	renin expression in CNT ([2]; sodium restriction plus furosemide (2 mg/kg, subcutaneous), overnight, vs sodium restriction alone)
N=C(N)NC(=O)c1nc(Cl)c(N)nc1N [amiloride]	significantly decreased	up-regulation	increased; also recorded: marked increase	–	–
NS(=O)(=O)c1cc(C(=O)O)c(NCc2ccco2)cc1Cl [furosemide]	–	–	–	without additional effects	decreased
